Data from PubChem BioAssay (NCI).
“And” between values parts separate entries of the source, which are not always exact repeats. Equal entries are not always repeated.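 Values below derive from 48-hour exposures of cells grown in 96-well plates, with endpoints linearly interpolated between the two concentrations bracketing the appropriate inhibition level. GI50 marks 50% less growth. TGI denotes the concentration required for complete inhibition of growth.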

Key:
Experiment in all cases: NCI-60 cell line screen, 48 h
A498 renal = tested on: A498 renal
DU-145 prostate = tested on: DU-145 prostate
EKVX NSCLC = tested on: EKVX NSCLC
HCT-15 colon = tested on: HCT-15 colon
MALME-3M melanoma = tested on: MALME-3M melanoma
MDA-MB-231 breast = tested on: MDA-MB-231 breast
NCI/ADR-RES ovarian = tested on: NCI/ADR-RES ovarian
OVCAR-8 ovarian = tested on: OVCAR-8 ovarian
PC-3 prostate = tested on: PC-3 prostate
SK-MEL-28 melanoma = tested on: SK-MEL-28 melanoma

| SMILES | GI50 (A498 renal) [µM] | TGI (A498 renal) | GI50 (DU-145 prostate) [µM] | TGI (DU-145 prostate) | GI50 (EKVX NSCLC) [µM] | TGI (EKVX NSCLC) | GI50 (HCT-15 colon) [µM] | TGI (HCT-15 colon) | GI50 (MALME-3M melanoma) [µM] | TGI (MALME-3M melanoma) | GI50 (MDA-MB-231 breast) [µM] | TGI (MDA-MB-231 breast) | GI50 (NCI/ADR-RES ovarian) [µM] | TGI (NCI/ADR-RES ovarian) [µM] | GI50 (OVCAR-8 ovarian) [µM] | TGI (OVCAR-8 ovarian) | GI50 (PC-3 prostate) [µM] | TGI (PC-3 prostate) | GI50 (SK-MEL-28 melanoma) [µM] | TGI (SK-MEL-28 melanoma) |
| --- | --- | --- | --- | --- | --- | --- | --- | --- | --- | --- | --- | --- | --- | --- | --- | --- | --- | --- | --- | --- |
| Cc1c(Nc2nccc3cc(CN4CC[C@@H](O)C4)cnc23)cccc1-c1cccc(-c2nc3cc(CN4CC[C@@H](C(=O)O)C4)cc(C#N)c3o2)c1C | > 100 | > 100 µM | > 100 | > 100 µM | > 100 | > 100 µM | 3.79 | 15.8 µM | 4.35 | 23.2 µM | 7.45 | 26.2 µM | 14.8 | > 100 | 12.4 | 36.2 µM | 4.17 | > 100 µM | 11.6 | 27.8 µM |
| O=S(=O)(/N=S(/Nc1ccccc1)C(F)(F)Cl)c1ccccc1 (stereo not given) | – | > 100 µM | – | > 100 µM | – | > 100 µM | – | > 100 µM | – | > 100 µM | – | > 100 µM | – | > 100 | – | > 100 µM | – | > 100 µM | – | > 100 µM |
| O=C1CS/C(=N/S(=O)(=O)c2ccc(N3N=C4c5ccccc5CC4C3c3cccs3)cc2)N1C(=O)c1ccccc1 (stereo not given) | 23.6 | 94.6 µM | 38.2 | > 100 µM | 42.4 | > 100 µM | 56.3 | > 100 µM | – | – | 44.6 | > 100 µM | > 100 | > 100 | 45.7 | > 100 µM | 38.1 | > 100 µM | > 100 | > 100 µM |
| COc1cc(/C=C/C(=O)CC(=O)/C=C/c2cc(OC)c(O)c(OC)c2)cc(OC)c1O | 15.6 | 12.2 µM and 37.5 µM | 20.7 | 24.8 µM and > 100 µM | 18.7 | 25 µM and 71.2 µM | – | > 25 µM and 90.4 µM | 14.8 | 25 µM and 30.6 µM | 9.37 | 25 µM and 32.6 µM | > 100 | > 100 | 18 | 25 µM and 61.3 µM | – | 25 µM and 37.8 µM | 14.1 | 21.5 µM and 57.8 µM |
| O=c1[nH]c2ccccc2c(O)c1/C=N/C(=S)NC1CCCCC1 | – | > 100 µM | – | > 100 µM | – | > 100 µM | – | > 100 µM | – | – | – | > 100 µM | – | > 100 | – | > 100 µM | – | > 100 µM | – | – |
| NC1=NC(SCc2ccccc2CCl)c2ncn(Cc3ccccc3CCl)c2N1 (stereo not given) | 8.51 | 25.3 µM | 1.35 | 2.7 µM | 3.14 | 11.6 µM | 2.9 | 12.3 µM | 1.44 | 3.2 µM | 2.9 | 11.4 µM | 1.81 | 4.3 | 2.01 | 5.09 µM | 1.79 | 3.52 µM | 2.28 | 6.97 µM |
| COC(=O)CC1(O)C=CC(=O)C=C1 | – | 15.9 µM | – | 18.6 µM | – | 15.5 µM | – | 8.76 µM | – | 6.9 µM | – | 6.51 µM | – | 32.4 | – | 17.3 µM | – | 6.35 µM | – | 7.47 µM |
| NC(N)=NC(N)=Nc1ccc(C(=O)O)cc1 | – | > 100 µM | – | > 100 µM | – | > 100 µM | – | > 100 µM | – | > 100 µM | – | > 100 µM | – | > 100 | – | > 100 µM | – | > 100 µM | – | > 100 µM |
| COc1ccc(Nc2ncnc3ccc(-c4cncc(NS(C)(=O)=O)c4)cc23)cc1Cl | 1.8 | 4.44 µM | 3.78 | 15.2 µM | 1.99 | 6.82 µM | 3.6 | 14.1 µM | 1.55 | 11.2 µM | 2.71 | 15.3 µM | 21.4 | 81.5 | 3.62 | 16.5 µM | 2.83 | 16.6 µM | 2.75 | 18.4 µM |
| C=C(C)[C@@H]1CCc2c(O)c(O)c(=O)cc(C)c2C1 | – | > 62.3 µM | – | > 100 µM | – | > 100 µM | – | > 100 µM | – | 35 µM | – | > 100 µM | – | 25.8 | – | 22.3 µM | – | > 100 µM | – | > 77.2 µM |
| COc1cc(OC)c2c(=O)cc(-c3ccccc3OCc3ccccc3)oc2c1OC | 9.62 | 69.9 µM | 18.5 | > 100 µM | 5.54 | 91.2 µM | 16.2 | > 100 µM | – | – | 5.6 | 71.8 µM | 2.96 | 18.6 | > 100 | > 100 µM | 3.34 | 32.5 µM | 12.7 | 46.5 µM |
| CC(C)C[C@H](NC(=O)Cn1cccc(CNC(=O)c2ccccc2)c1=O)B(O)O | 0.136 | 0.706 µM | 0.734 | 45.1 µM | – | – | 4.7 | 37.3 µM | 0.16 | 1.88 µM | 0.567 | 3.06 µM | > 69.1 | > 100 | 4.23 | > 85.7 µM | 3.08 | > 59.1 µM | 0.207 | 13 µM |
